In ChEMBL document CHEMBL1157940, “Culicinin D, an antitumor peptaibol produced by the fungus Culicinomyces clavisporus, strain LL-12I252” (J Nat Prod, 2006):
Values after ≈ are worked out from the molar mass of the structure shown. Active and inactive are the calls of the source. The calls are words filed in the database; no cut-off is given here. Numbered stars: 1 amine (or outer) side, 2 acyl side, 3 side chain; on linkers, the order of the positions; unused ones are H or OH. Square brackets hold non-standard residues; d marks the D form. Peptide text beside a SMILES is read from it. * marks the point of attachment. X1 = CCC(=O)CC(O)CC(C)C[C@H](N[*:1])C(=O)[*:2]; X2 = CCCCCCC(C)C[C@@H](N[*:1])C(=O)[*:2]; Aib = CC(C)(N)C(=O)O; Butyryl = CCCC(=O)*; X3 = CC(CNCCO)N*; βAla = NCCC(=O)O

What was measured:
[1] = Effect on PI3K/AKT/mTOR pathway in PTEN deficient human MDA468 cells assessed as inhibition of cyclin D3 level at 0.01 to 0.1 ug/mL after 16 hrs by Western blot; format: cell-based; conditions: MDA-MB-468
[2] = Effect on PI3K/AKT/mTOR pathway in PTEN deficient human MDA468 cells assessed as inhibition of S6 phosphorylation after 16 hrs by Western blot; format: cell-based; conditions: MDA-MB-468
[3] = Growth inhibition of PTEN deficient human MDA468 cells after 3 days by MTS assay; format: functional, cell-based; conditions: MDA-MB-468, 72 h
[4] = Effect on PI3K/AKT/mTOR pathway in PTEN deficient human MDA468 cells assessed as increase in p27Kip1 level at 0.01 to 0.1 ug/mL after 16 hrs by Western blot; format: cell-based; conditions: MDA-MB-468
[5] = Effect on PI3K/AKT/mTOR pathway in PTEN deficient human MDA468 cells assessed as inhibition of 4EBP1 phosphorylation after 16 hrs by Western blot; format: cell-based; conditions: MDA-MB-468
[6] = test system: MDA-MB-435; assay: Growth inhibition of human MDA435 overexpressing PTEN after 3 days by MTS assay; format: functional; conditions: MDA-MB-435, 72 h
[7] = Effect on PI3K/AKT/mTOR pathway in PTEN deficient human MDA468 cells assessed as inhibition of S6K phosphorylation after 16 hrs by Western blot; format: cell-based; conditions: MDA-MB-468
[8] = Effect on PI3K/AKT/mTOR pathway in PTEN deficient human MDA468 cells assessed as phosphorylated AKT level at 0.01 to 0.1 ug/mL after 16 hrs by Western blot; format: cell-based; conditions: MDA-MB-468

Which results are given for `CCCCCCC(C)C[C@@H](NC(=O)C(C)(C)NC(=O)C(C)(C)NC(=O)[C@H](CC(C)CC(O)CC(=O)CC)NC(=O)[C@@H]1CCCN1C(=O)CCC)C(=O)N[C@@H](CC(C)C)C(=O)NC(C)(C)C(=O)N[C@@H](CC(C)C)C(=O)NCCC(=O)NC(C)CNCCO` (stereo partly drawn) [CULICININ D] (Butyryl-P[X1][Aib][Aib][X2]L[Aib]L[βAla]-X3)?
Activity [1]: Active; Activity [2]: Dose-dependent effect; IC50 [3]: < 0.007 µg/mL; Activity [4]: Active; Activity [5]: Dose-dependent effect; IC50 [6]: 1.6 µg/mL (≈ 1.3 µM); Activity [7]: Dose-dependent effect; Activity [8]: inactive
